# PMC12040169 (PLOS Biology, 2025)
# Experiment: in vitro
# Settings: human, hela cells, % viability
row,Structure (SMILES),"viability at 28.5 h, 10 µM"
1,O=C(NC1CCCCC1)N[C@H]1[C@H](O)[C@@H](N2CCN(c3ccccc3)CC2)[C@@H]2OC[C@H]1O2 [CBK288822],95%
2,CN1CCN(c2cc3c(cc2F)c(=O)c(C(=O)O)cn3-c2ccc(F)cc2)CC1 [CBK287138],78.4%
3,CC(=O)Nc1ccc(CC(C(=O)O)c2ccccc2)cc1 (centres unmarked) [CBK286600],98.8%
4,c1ccc2c(c1)OCC(COc1ccnc(N3CCCN(CCc4ccc5ccccc5c4)CC3)n1)O2 (centres unmarked) [CBK083983],90.7%
5,COC(=O)[C@@H]1CN(C(=O)C2CCCC2)CCN1C(=O)c1cccs1 [CBK289609],93.5%
6,Nn1c(SCc2ccc(C(=O)O)cc2)nnc1-c1ccccn1 [CBK267553],90.8%
7,O=C1CCc2c(Cc3c(Cl)cccc3Cl)c(O)nn21 [CBK083470],91.3%
8,COC(=O)C1(Cc2ccccc2-c2ccncc2)CCOCC1 [CBK284709],95.2%
9,Cc1nc2ccccn2c1CN1CCC(N2CCCC2)CC1 [CBK281730],108%
10,O=C(Nc1cc2nn(-c3ccccc3)nc2cc1Cl)c1ccc(-c2cccc([N+](=O)[O-])c2)o1 [CBK266271],94%
11,CCc1nn2c(=O)cc(CNc3ccc4c(c3)OCCO4)nc2s1 [CBK297787],99.2%
12,COCCCNC(=O)C1CCN(c2nc3c(-c4cccc(C)c4)csc3c(=O)[nH]2)CC1 [CBK215630],96.6%
13,Nc1c(-c2cccc(C(F)(F)F)c2)cnc2ncccc12 [CBK083710],105%
14,O=C(NC1CCCCCC1)c1ccc(COCC(F)(F)C(F)F)cc1 [CBK059012],114%
15,CC(=O)c1cccc(NC(=O)c2cc(S(=O)(=O)N(C)C)ccc2Cl)c1 [CBK265732],111%
16,Cc1ccc2oc(C(=O)Nc3sc4c(c3C(=O)NCC3CCCO3)CCC4)c(C)c2c1 (centres unmarked) [CBK266282],111%
17,CN1CCN(c2ccc(C(=O)NC3CCCC3)cc2)CC1 [CBK200119],78.5%
18,O=C1NC[C@@H](Cc2ccccc2)NC(=O)C2(C/C=C/COc3ccccc31)CCN(Cc1ncccc1F)CC2 [CBK292193],111%
19,Cc1ccc(Cn2ccsc2=NC(=O)c2cc(S(=O)(=O)N3CCOCC3)ccc2C)cc1 [CBK296935],101%
20,O=C(Oc1ccccc1)c1ccnc(Cl)c1 [CBK090322],87.2%
21,Cn1nc(C2CCN(C(=O)c3cccs3)CC2)c2cccnc21 [CBK284925],82.9%
22,COc1ccc(CN(C)c2c(C)nc3c(OCCCN(C)S(C)(=O)=O)cccn23)cc1 [CBK147468],90%
23,CCOc1ccc(S(=O)(=O)Nc2ccc(C(=O)O)c(O)c2)cc1 [CBK299837],94.2%

row,Structure (SMILES),"viability at 28.5 h, 10 µM"
1,CC(=O)N1CC(C(=O)Nc2nc3c(C)cc(C)cc3s2)C1 [CBK281372],95.9%
2,COc1cccc2c1cc(C(=O)NCCCC1CCOC1)n2C (centres unmarked) [CBK283284],93.4%
3,O=C(Nc1nc(-c2ccncc2)cs1)c1sc2ccccc2c1Cl [CBK287562],92.1%
4,CCOc1ccc(N(Cc2cc3cc(C)ccc3nc2O)S(=O)(=O)c2ccccc2)cc1 [CBK267924],120%
5,COCc1[nH]nc(O)c1Cc1c(Cl)cccc1Cl [CBK105305],91%
6,Cc1ccc(-n2nnnc2SCC(=O)O)cc1 [CBK287048],94.1%
7,CC(=O)c1ccc(-c2cc(F)cc3c2OC(CN)C3)s1 (centres unmarked) [CBK307513],54.2%
8,Cc1ccc(NC(=O)N2CCCC(CO)C2)cc1 (centres unmarked) [CBK156065],77.9%
9,O=C(c1cncnc1)N1CCN(C(=O)c2ccco2)CC1 [CBK144477],104%
10,CCC(=O)N(C)[C@H]1CC[C@]2(CC1)CNC(=O)c1ccccc1O2 [CBK281683],87.5%
11,COc1nccnc1OC1CCN(CC(=O)Nc2c(C)cccc2C)CC1 [CBK084249],96.1%
12,O=C(Nc1cccc([N+](=O)[O-])c1)c1ccc(CSc2ccccc2)cc1 [CBK265295],117%
13,CCN(CC)c1ccc(NC(=O)N(CCCN2CCOCC2)Cc2ccc(OC)c(OC)c2)cc1 [CBK159168],91.1%
14,CC#Cc1cn([C@H]2C[C@@H](O)[C@@H](CO)O2)c(=O)[nH]c1=O [CBK201182],104%
15,Nc1cccc(-c2cc(Nc3cccc(OCc4ccccc4)c3)ncn2)c1 [CBK090915],113%
16,CCOCCCC(=O)N1CCn2c(nnc2-c2cncc(Br)c2)C1 [CBK304764],91.5%
17,O=S(=O)(NC1c2cccc3cccc(c23)C1Sc1ncccn1)c1ccccc1 (centres unmarked) [CBK264706],103%
18,O=C(O)C1CCCCN1S(=O)(=O)c1ccc(Br)cc1 (centres unmarked) [CBK101789],88.6%
19,O=C(Nc1ccc(Br)cc1)C1CC(O)CN1C(=O)OCc1ccccc1 (centres unmarked) [CBK263233],101%
20,N#CC1(NC(=O)CN2CCOC(Cn3cccn3)C2)CCCCC1 (centres unmarked) [CBK305268],87.2%
21,N#Cc1cc(F)cc(F)c1NC(=O)c1cccs1 [CBK066832],90.2%
22,O=[N+]([O-])c1ccc(Sc2cccs2)c(C(F)(F)F)c1 [CBK002621],105%
23,CSCCCNC(=O)N1CCN(c2cc(C(F)(F)F)ccn2)CC1 [CBK156433],92.3%

row,Structure (SMILES),"viability at 28.5 h, 10 µM"
1,NC(=O)CCNC(=O)N1CCc2ccccc2C1 [CBK155288],104%
2,CCC(CO)Nc1nccnc1-c1cccs1 (centres unmarked) [CBK036800],98.3%
3,CC1(C)Cc2c(oc(N)c2C#N)CO1 [CBK014395],101%
4,Cn1nccc1CCNC(=O)c1cccc(S(=O)(=O)N2CCCCC2)c1 [CBK304363],97%
5,Cc1ccc(-n2c(SCC(=O)NC(C)Cc3ccccc3)nc3sc4c(c3c2=O)CC(C)(C)OC4)cc1 (centres unmarked) [CBK267714],94.7%
6,O=C(NNc1nc(-c2ccccc2)cc(-c2ccccc2)n1)Nc1ccccc1 [CBK262223],91.3%
7,Cc1c(Br)c(C(F)(F)F)nn1CC(=O)N1CCCC1 [CBK071473],92.9%
8,Cc1nc(C)n(CCC(=O)NC(C)c2cccs2)n1 (centres unmarked) [CBK282224],105%
9,COc1ccc2c(c1)C1(CC(=O)N(Cc3ccccc3)C1=O)C(=O)N2CC(=O)O (centres unmarked) [CBK076108],92.5%
10,CN(C)CCCNC(=O)c1cc(C(C)(C)C)nn1Cc1ccc(Cl)cc1Cl [CBK107286],102%
11,O=C(Nc1cnc(-c2ccc(F)c(Cl)c2)c(-c2cccnc2)n1)c1cnccn1 [CBK036819],102%
12,CCCCN1CC(C(=O)Nc2nccs2)CC1=O (centres unmarked) [CBK288224],95.3%
13,CC(C)CC(C(=O)Nc1ccc(C2CCCC2)cc1)N1CCN(C)CC1 (centres unmarked) [CBK024386C],87%
14,CC(=O)N1CCCC(c2cc3cccnc3n2CCN2CCCC2)C1 (centres unmarked) [CBK284591],96.8%
15,O=C(NCC(c1ccccc1)c1ccccc1)N1CCN(c2ccc(F)cc2)CC1 [CBK156415],97%
16,CSc1nnc(-c2ccccc2O)n1CCc1ccccc1 [CBK076668],96.8%
17,O=C(Nc1nnc(-c2ccccc2)o1)C1COc2ccccc2O1 (centres unmarked) [CBK287596],103%
18,FC(F)(F)c1cccc(-c2cn(-c3ccsc3)nn2)c1 [CBK112937],88.5%
19,CC(C)CN(CC(C)C)C(=O)Cn1cc([N+](=O)[O-])cc(C(N)=O)c1=O [CBK297784],83.9%
20,COc1ccc(-c2cc(C(=O)NCCc3c[nH]c4ccccc34)cnc2-c2ccc(F)cc2)cn1 [CBK036649],95.2%
21,CC(C)(CSc1ccccn1)NS(=O)(=O)c1ccccc1 [CBK268513],102%
22,CC(C)(C)OC(=O)N1CCC(NC(=O)c2ccc(-c3ccc(S(C)(=O)=O)cc3)cn2)CC1 [CBK174352],84.8%
23,O=C(O)c1ccccc1NC1CC(=O)N(C2CCCCC2)C1 (centres unmarked) [CBK286556],91.3%

row,Structure (SMILES),"viability at 28.5 h, 10 µM"
1,COc1cc2c(cc1NC(=O)c1cc(-c3cccnc3)nc3ccc(C)cc13)oc1ccccc12 [CBK267722],92.1%
2,O=C(NC(c1ccc(Cl)cc1)c1ccsc1)C1CCN(CCOc2ccccc2)CC1 (centres unmarked) [CBK147951],101%
3,CN1CCN(C(=O)c2ccc(-c3ccc4c(c3)OCO4)nc2NCc2cccnc2)CC1 [CBK076110],90.7%
4,CN(Cc1ccccc1)CC(O)c1ccc2c(c1)CCCN2C(=O)c1ccccc1F (centres unmarked) [CBK286278],88.2%
5,COc1ccc(Nc2cc(-c3ccco3)ncn2)cc1OC [CBK090822],99.5%
6,O=C(Cn1nnc(-c2ccccc2)n1)Nc1cccc([N+](=O)[O-])c1 [CBK263057],97.9%
7,Cc1ccccc1-c1cc(C(=O)NCCCn2cc(Br)cn2)c2ccccc2n1 [CBK267758],97.8%
8,O=C(O)c1ccc(C(=O)NC2CCN(CC(F)(F)F)C2=O)s1 (centres unmarked) [CBK305524],95.4%
9,COC(=O)Nc1nc(Cl)cc(Cl)n1 [CBK027433],93.8%
10,CN1CCN(c2ccc3ccn(S(=O)(=O)c4ccc([N+](=O)[O-])cc4)c3n2)CC1 [CBK070757C],104%
11,COc1ccc(C2=NN(C(=O)CCCC(=O)O)C(c3ccc4nccnc4c3)C2)cc1OC (centres unmarked) [CBK297785],84.2%
12,N#Cc1cccnc1N1CCC(NC(=O)c2cc(Cl)c[nH]c2=O)CC1 [CBK306586],104%
13,CC(=O)c1cccc(NC(=O)N(CCO)C2CCCc3ccccc32)c1 (centres unmarked) [CBK305195],83%
14,CCc1nnc(NS(=O)(=O)c2c(C)nn(C)c2Cl)s1 [CBK062180],112%
15,O=C(CCCn1ccnc1)Nc1ccc(N2CCCCC2)c(F)c1 [CBK281385],81.1%
16,Cc1nonc1CNC(=O)N1CCOCC(C2CCC2)C1 (centres unmarked) [CBK304086],97.4%
17,Cc1cc2c(o1)c1cnn(CC(=O)N3CCCC3)c(=O)c1n2C [CBK284223],100%
18,CCc1ccc(CNC2CCN(Cc3cscn3)CC2)o1 [CBK305104],92.7%
19,CC1CCN(C(=O)CCn2c(C(F)F)cc3cccnc32)CC1 [CBK284982],85.6%
20,CCN(CC)CCOC(=O)c1oc2c3c(ccc2c1C)OCCO3 [CBK008676C],115%
